The values below come from patent publication US20240246943A1, “MULTIFACETED APPROACH TO NOVEL INTERLEUKIN-6 INHIBITORS” (UNIVERSITY OF FLORIDA RESEARCH FOUNDATION, INCORPORATED, priority 2021, published 2024).

Assay [1] relates to SUM159 breast cancer cells. The assay is described as follows: MTT cell viability assay, SUM159. The settings on record: 72 hours, Inactive = no measurable activity at 20 μM. In kind it is cell-based. On the procedure: (§1) Cell viability of MDA-MB-231 breast cancer cells was evaluated by using the MTT assay in triple replicates in one experiment and repeated for three times (FIG. 3). MDA-MB-231 SUM159, SUM159 gp140ko, MDA-MB-231 breast cancer cells or SUM149 or HCC1937 BRCA mutant breast cancer cells were seeded in 96-well plates at a density of 3,000 cells per well. The cells were incubated at 37° C. for a period of 24 hours. Escalating concentrations of IL-6/gp130 inhibitors (e.g., compounds of Formula (A), (B), (C), (D), (E), or (F) including LLM-418, bazedoxifene, LS-28-3, and COMP-D (LS-101-D)) were added in triplicate to the plates in the presence of 10% FBS. After incubation for 72 hours (unless otherwise noted), a stock solution of MTT (0.5 mg/ml) was then added to each well containing the treated cells, followed by incubation at 37° C. for 3 h. After removal of medium, the MTT dye was dissolved with spectrophotometric grade DMSO and the absorbance was read at 570 nm. The IC50 value is determined by interpolation based on the absorbance value halfway between positive and negative controls.

Assay [2] deals with T1, gp130 (Homo sapiens, UniProt P40189).
T1 construct: endogenous in cells; host or cells: MDA-MB-231 breast cancer cells (RIPA lysate)
T1 sequence (P40189 23-918): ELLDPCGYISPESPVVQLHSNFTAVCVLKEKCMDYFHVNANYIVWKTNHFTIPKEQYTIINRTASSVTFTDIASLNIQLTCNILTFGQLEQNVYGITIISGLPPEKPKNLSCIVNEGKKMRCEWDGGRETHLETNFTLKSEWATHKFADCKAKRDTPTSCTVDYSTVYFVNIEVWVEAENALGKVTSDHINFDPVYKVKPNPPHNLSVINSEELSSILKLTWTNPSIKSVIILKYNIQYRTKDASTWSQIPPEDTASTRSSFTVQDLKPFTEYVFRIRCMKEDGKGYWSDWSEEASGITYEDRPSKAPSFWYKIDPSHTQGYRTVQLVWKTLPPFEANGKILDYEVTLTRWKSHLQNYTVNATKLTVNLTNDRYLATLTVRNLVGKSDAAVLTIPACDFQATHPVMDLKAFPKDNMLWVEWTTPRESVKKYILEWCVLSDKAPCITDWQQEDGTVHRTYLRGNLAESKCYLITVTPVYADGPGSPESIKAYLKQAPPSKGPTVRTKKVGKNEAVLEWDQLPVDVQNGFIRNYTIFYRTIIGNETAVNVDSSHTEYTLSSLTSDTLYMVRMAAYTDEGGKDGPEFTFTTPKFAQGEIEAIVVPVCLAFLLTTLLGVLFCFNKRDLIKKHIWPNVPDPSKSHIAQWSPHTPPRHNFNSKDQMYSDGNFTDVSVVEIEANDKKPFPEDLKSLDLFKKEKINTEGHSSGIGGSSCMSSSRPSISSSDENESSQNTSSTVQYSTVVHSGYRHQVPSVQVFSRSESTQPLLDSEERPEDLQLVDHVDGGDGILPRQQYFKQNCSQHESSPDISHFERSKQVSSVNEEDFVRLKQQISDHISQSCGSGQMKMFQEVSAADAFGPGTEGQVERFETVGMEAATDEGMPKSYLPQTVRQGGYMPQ
Kind of assay: DARTS assay in MIAPaCa2 pancreatic cancer cell lysates. To be noted: 1:2000 pronase:protein, proteolysis 20 minutes; FIG. 2. In kind it is binding. As to the method: (§2) Cells were harvested and lysed in cold radioimmunoprecipitation assay (RIPA) lysis buffer containing proteasome inhibitor cocktail and phosphatase inhibitor cocktail. The protein concentrations were determined using the BCA Protein Assay kit. After adding the loading buffer and boiling at 95° C. for 10 minutes, equivalent amounts of proteins were loaded on and separated by SDS-PAGE, and then were transferred to PVDF membranes. Membranes were probed with primary antibodies (1:1000) against gp130 and GAPDH. Membranes were analyzed using Enhanced Chemiluminescence Plus reagents and either scanned with the Storm Scanner (Amersham Pharmacia Biotech, Inc., Piscataway, NJ) or imaged with ChemiDoc MP imaging system (Bio-Rad, Hercules, CA).
(§3) MDA-MB-231 breast cancer cells or MIAPaCa2 pancreatic cancer cells were lysed in cold radioimmunoprecipitation assay (RIPA) lysis buffer containing proteasome inhibitor cocktail and phosphatase inhibitor cocktail. Then lysates were incubated with escalating concentrations (10-1000 μM) of LS-28-3 or bazedoxifene at room temperature for 1 h. Proteolysis was followed by adding protease pronase solution at a ratio of 1 mg of pronase to 1000 mg (or 2000 mg) of lysate protein for 20 min at room temperature. […] The resulted protein samples were separated by 8% SDS-PAGE gel and analyzed by western blotting. […]

Assay [3] deals with T1, gp130. The assay is described as follows: DARTS assay in MDA-MB-231 breast cancer cell lysates. Format: binding. The settings on record: 1:2000 pronase:protein, proteolysis 20 minutes; FIG. 1. On the procedure: as §2, §3
Assay [4] has as its system MDA-MB-231 breast cancer cells. Kind of assay: MTT cell viability assay, MDA-MB-231. Format: cell-based. The settings on record: MTT, 10 μM compound. As to the method:
as §1, with “MDA-MB-231 SUM159, SUM159 gp140ko, MDA-MB-231 breast cancer cells or SUM149 or HCC1937 BRCA mutant breast cancer cells were seeded in 96-well plates at a density of 3,000 cells per well.” left out

Assay [5] addresses T2, extracellular domain of glycoprotein 130 (gp130) (Homo sapiens, UniProt P40189).
T2 sequence (P40189 23-619 limits assumed): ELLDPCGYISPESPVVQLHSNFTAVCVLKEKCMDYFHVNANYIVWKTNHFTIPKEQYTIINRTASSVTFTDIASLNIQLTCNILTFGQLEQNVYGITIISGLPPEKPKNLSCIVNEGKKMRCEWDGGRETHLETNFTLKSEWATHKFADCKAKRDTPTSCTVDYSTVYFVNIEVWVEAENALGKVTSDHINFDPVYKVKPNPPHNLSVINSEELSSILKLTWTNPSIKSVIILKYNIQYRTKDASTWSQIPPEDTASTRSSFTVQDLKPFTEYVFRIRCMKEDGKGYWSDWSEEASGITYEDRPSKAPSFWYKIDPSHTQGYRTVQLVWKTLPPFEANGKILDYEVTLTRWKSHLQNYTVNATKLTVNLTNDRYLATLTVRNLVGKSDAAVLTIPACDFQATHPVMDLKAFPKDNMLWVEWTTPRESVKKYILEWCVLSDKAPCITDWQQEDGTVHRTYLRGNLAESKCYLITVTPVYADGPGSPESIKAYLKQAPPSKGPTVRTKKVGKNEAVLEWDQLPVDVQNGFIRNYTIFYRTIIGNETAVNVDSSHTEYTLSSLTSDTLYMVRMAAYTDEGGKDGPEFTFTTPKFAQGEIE
The settings on record: binding to extracellular domain of gp130; literature reference 6; cited from earlier work.

Marks after values point to notes of the source that are not given here.

Turning to `CC(C)[C@H]1COC(=O)N1c1ccc(C(=O)Nc2cccc(-c3cc[nH]n3)c2)cc1` [LS-28-3, (S)—N-(3-(1H-pyrazol-3-yl)phenyl)-4-(4-isopropyl-2-oxooxazolidin-3-yl)benzamide], the “IC50 Values in Breast Cancer Cell Lines, SUM159” value in assay [1] (Table 1 batch studies) was “Inactive”. The “SUM159 IC50” value in assay [1] (Table 3 batch studies (independent from Table 1)) is given as “Inactive”. Also, the “Binding to gp130 (protection from pronase proteolysis), MIAPaCA2 lysates” value at gp130 [2] is reported as “showed direct binding to gp130”. The “Binding to gp130 (protection from pronase proteolysis), MDA-MB-231 lysates” value on gp130 [3] is reported as “showed direct binding to gp130”. For the same compound, the “Percent cells remaining after treatment with 10 μM compound, MDA-MB-231” value in assay [4] (Table 1 batch studies) and in assay [4] (Table 3 batch studies) was 88%*** each time.

As a reminder, the Kd is a measure of binding affinity in units of concentration. `CCCCC1=C(C)C(=O)[C@](C)(CN2c3ccccc3[C@]3(O)CCOC23)C1=O` (stereo partly shown) [MDL-A, Madindoline A]: the Kd in assay [5] was 288 µM.
